From the supplement of paper PMC11061612 come the findings set out here.

In assay [1] the test system is KP-3 (Pancreatic Carcinoma). Briefly: Bliss excess, mean over the matrix (fraction); higher = more synergy. In a few lines:
(§1)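 After 24 hours at 37°C and 5% CO2 in 1536-well plates, cells in DMEM/F12 or RPMI plus 10% FBS received two-drug dose matrices for 72 hours. Viability came from CellTiter-Glo 2.0 luminescence and was scaled as inhibition, anchored at 0 by vehicle wells and at 1 by blank wells. Combination Emax is taken as the second-highest inhibition in the matrix, and Bliss excess as the observed combination effect less EA + EB − EA·EB, with EA and EB the single-agent effects.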

Assay [2] relates to KY821 (Acute Myeloid Leukemia). Described as above. In a few lines: as §1
In assay [3] the test system is JHH-4 (Hepatocellular Carcinoma). The assay is described as above. In outline:
as §1

A further assay relates to M059J (Glioblastoma). The description is as above. In outline: as §1
Assay [4] has as its system RPMI-8226 (Plasma Cell Myeloma). The assay is described as above. In outline: as §1
Assay [5] has as its system T-T (Esophageal Squamous Cell Carcinoma). Described as above. In outline:
as §1

Assay [6] relates to MOLM-13 (Acute Myeloid Leukemia). Described as above. In outline:
as §1

Assay [7] concerns COR-L279 (Small Cell Lung Carcinoma). Described as above. In outline: as §1
In assay [8] the test system is ESO51 (Esophageal Adenocarcinoma). Described as above. In a few lines: as §1
For assay [9], the system named is 8505C (Thyroid Gland Carcinoma). The assay is described as above. In a few lines: as §1
Assay [10] relates to SNU-398 (Hepatocellular Carcinoma). The assay is described as above. In outline: as §1
Assay [11] relates to SU-DHL-5 (B-Cell Non-Hodgkin's Lymphoma). Described as above. In a few lines:
as §1

Another assay relates to SJSA-1 (Osteosarcoma). The description is as above. In a few lines:
as §1

A further assay deals with NCI-H2731 (Mesothelioma). The assay is described as above. In a few lines: as §1
The subject of assay [12] is KMS-12-BM (Plasma Cell Myeloma). Described as above. In a few lines:
as §1

In the next assay the test system is G-361 (Melanoma). The description is as above. In a few lines:
as §1

The test system of assay [13] is NCI-H661 (Non-Small Cell Lung Carcinoma). The description is as above. In a few lines:
as §1

In assay [14] the test system is NCI-H929 (Plasma Cell Myeloma). Described as above. In a few lines: as §1
Assay [15] concerns NCI-H520 (Squamous Cell Lung Carcinoma). The description is as above. In outline: as §1
For assay [16], the system named is ST486 (Burkitt's Lymphoma). Briefly: combination Emax (second highest fraction inhibited in the dose matrix, 72 h); higher = more inhibition; extreme values may be limits of the assay. In outline: as §1
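Wherever Bliss excess, mean over the matrix is given: after 72 h of two-drug dosing.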

Turning to `CC(=O)c1c(C)c2cnc(Nc3ccc(N4CCNCC4)cn3)nc2n(C2CCCC2)c1=O` [Palbociclib] + Cc1c2c(nn1C)CSCc1cc(n(C)n1)CSc1cc(c3ccccc3c1)OCCCc1c(C(=O)O)n(C)c3c-2c(Cl)ccc13 [AZD5991] (first compound max 10 µM, 7x7, partner max 1 µM), the Bliss excess is -0.0436 in assay [1]; -0.0372 in [2]; -0.0518 in assay [3]; -0.0303 with M059J (Glioblastoma); -0.0191 in assay [4]; 0.0028 in assay [5]. Also, the Bliss excess is -0.0314 in assay [6]; 0.006 in assay [7]; -0.0192 in assay [8]; -0.175 in assay [9]; 0.0128 in [10]; -0.0071 in [11]. Moreover, the Bliss excess in the assay on SJSA-1 (Osteosarcoma) was -0.0426; with NCI-H2731 (Mesothelioma), -0.0484; in assay [12], 0.035; in the assay with G-361 (Melanoma), -0.0464; in assay [13], -0.0443; in assay [14], 0.0099. Also, in assay [15], the Bliss excess stood at 0.0024. Further, the “combination Emax” value in [16] was 0.832.
For the compound `CC(=O)c1c(C)c2cnc(Nc3ccc(N4CCNCC4)cn3)nc2n(C2CCCC2)c1=O` [Palbociclib] + Cn1cnc2c(F)c(Nc3ccc(Br)cc3Cl)c(C(=O)NOCCO)cc21 [Selumetinib] (first compound max 10 µM, 7x7, partner max 10 µM), the Bliss excess in assay [1] is -0.0328; in assay [2] it was 0.0803; in assay [3] it was -0.0336; with M059J (Glioblastoma), -0.0441; in [4], 0.142; in assay [5] it was 0.0252. In addition, the Bliss excess in [6] was 0.0262; in assay [7] it was -0.025; in assay [8], 0.0041; in [9] it was -0.0377; in [10], -0.0388; in [11] it was 0.101. In addition, the Bliss excess is -0.038 in the assay on SJSA-1 (Osteosarcoma); -0.0341 in the assay with NCI-H2731 (Mesothelioma); 0.0219 in [12]; -0.0785 with G-361 (Melanoma); -0.0533 in assay [13]; 0.0643 in assay [14]. In addition, the Bliss excess in [15] is -0.054. Besides, the “combination Emax” value in assay [16] was 0.79.
As for `COc1cccc(OCCCN)c1-c1cc(Nc2cnc(C#N)cn2)n[nH]1` [Prexasertib] + C=CCn1c(=O)c2cnc(Nc3ccc(N4CCN(C)CC4)cc3)nc2n1-c1cccc(C(C)(C)O)n1 [AZD1775] (first compound max 1 µM, partner max 1 µM), the Bliss excess in assay [1] was -0.0138; in assay [2] it was 0.063; in [3] it was 0.0703; in the assay with M059J (Glioblastoma), 0.178; in assay [4] it was 0.0893; in [5] it was 0.208. In addition, the Bliss excess in assay [6] is 0.036; in assay [7], 0.0823; in assay [8], -0.0153; in [9], 0.0849; in assay [10] it was 0.0254; in [11], 0.0644. In addition, the Bliss excess was -0.0243 with SJSA-1 (Osteosarcoma); 0.0338 in the assay on NCI-H2731 (Mesothelioma); 0.0595 in assay [12]; 0.0806 in the assay with G-361 (Melanoma); -0.0287 in assay [13]; 0.15 in assay [14]. Also, the Bliss excess in assay [15] stood at 0.0421. The “combination Emax” value in assay [16] came to 1.
Regarding `COc1cccc(OCCCN)c1-c1cc(Nc2cnc(C#N)cn2)n[nH]1` [Prexasertib] + CCc1c2c(nc3ccc(O)cc13)-c1cc3c(c(=O)n1C2)COC(=O)[C@]3(O)CC [SN-38] (first compound max 1 µM, 7x7, partner max 0.3 µM), the Bliss excess in assay [1] was 0.0321; in assay [2], -0.0235; in assay [3], -0.0289; with M059J (Glioblastoma) it was -0.0373; in [4] it was 0.0686; in assay [5], 0.12. In addition, the Bliss excess is 0.0073 in [6]; -0.0221 in assay [7]; -0.0376 in assay [8]; -0.0559 in assay [9]; 0.0441 in [10]; 0.0023 in assay [11]. The Bliss excess was -0.129 with SJSA-1 (Osteosarcoma); 0.0108 in the assay on NCI-H2731 (Mesothelioma); 0.0381 in assay [12]; -0.0219 with G-361 (Melanoma); 0.0419 in assay [13]; -0.0713 in assay [14]. In assay [15], the Bliss excess is -0.0483. In assay [16], the “combination Emax” value stood at 1.
Take `COc1cccc(OCCCN)c1-c1cc(Nc2cnc(C#N)cn2)n[nH]1` [Prexasertib] + CN(C)CCCOc1ccc(-c2ccc3ncc4c(c3c2)n(C2CCOCC2)c(=O)n4C)cn1 [AZD0156] (first compound max 1 µM, 7x7, partner max 1 µM): the Bliss excess was 0.0021 in [1]; -0.0228 in [2]; -0.0346 in assay [3]; -0.0826 in the assay on M059J (Glioblastoma); -0.0048 in [4]; 0.0061 in assay [5]. In addition, the Bliss excess is -0.0248 in assay [6]; 0.0053 in assay [7]; -0.0414 in assay [8]; -0.0089 in assay [9]; 0.0501 in assay [10]; -0.0089 in assay [11]. The Bliss excess was -0.0246 in the assay on SJSA-1 (Osteosarcoma); -0.012 in the assay with NCI-H2731 (Mesothelioma); 0.0343 in [12]; 0.061 in the assay with G-361 (Melanoma); -0.0451 in assay [13]; -0.0523 in [14]. The Bliss excess in assay [15] is -0.0486. For the same compound, the “combination Emax” value in assay [16] turned out to be 0.991.
With `COc1cccc(OCCCN)c1-c1cc(Nc2cnc(C#N)cn2)n[nH]1` [Prexasertib] + C[C@@H]1COCCN1C2=NC(=NC(=C2)C3(CC3)[S@](=N)(=O)C)C4=C5C=CNC5=NC=C4 [AZD6738] (first compound max 1 µM, 7x7, partner max 10 µM), the Bliss excess in assay [1] is 0.0162; in assay [2] it was -0.0129; in [3] it was 0.0024; in the assay on M059J (Glioblastoma), -0.0325; in [4], -0.006; in [5], 0.0178. The Bliss excess in assay [6] is -0.0051; in [7], 0.0035; in assay [8], -0.0632; in assay [9], -0.0075; in [10], 0.026; in assay [11], -0.0147. Further, the Bliss excess in the assay with SJSA-1 (Osteosarcoma) was 0.0188; in the assay with NCI-H2731 (Mesothelioma) it was -0.0089; in assay [12] it was -0.0071; with G-361 (Melanoma), 0.045; in assay [13] it was -0.0655; in assay [14], -0.0081. The Bliss excess in assay [15] is -0.0481. Besides, the “combination Emax” value in assay [16] is 0.98.
